# Source: patent US12209141B2, “Dipeptide compounds and uses thereof” (HUAHAI US INC., priority 2018, dated 2025)
# Assays:
# [1] = tested on: venous thrombosis in SD Rat; assay: Venous thrombosis in rat; format: in vivo; parameters: wet weight of thrombus: unit not given here; conditions: for antithrombotic effect (in words): single oral dose of 10 mg/kg
# Text: Animals: SD Rat (Weight 180˜210 g, Sex Male)
# Solution preparation: Weigh proper amount of the test chemical, dissolved in DMSO to give the stock solutions, serial dilution with water then provided the required concentration of administration dosage.
# Experimental procedures: After 3-day adaptive breeding, male Sprague-Dawley rats were randomly divided into groups: model group, positive drug group and compound groups, with 4˜6 rats in each group.
# The rats in the model group were given either intravenous injection or intragastric administration with equivalent solvent, those in the positive or compound group were given either intravenous injection or intragastric administration in a dose of 10 mg/kg.
# The left renal vein was ligated with a silk thread to initiate thrombus formation. After 6 hours of stasis, another ligature was made at the distal side 2 cm apart from the first, thrombus formed inside the vessel was carefully removed, blotted on wet filter paper and weighed.
# [2] = Solubility tests at different pH values; format: physicochemical; conditions: aqueous buffer, thermodynamic from solid, 37° C.
# Procedure: Weigh proper amount of the test chemical into buffered salt solutions with different pH value (4.0, 6.3, 7.4 and 9.0), the suspension was shaken at 37° C. for 1 hour. Precipitated and undissolved residues were removed by centrifugation. The content of the supernatant was determined by HPLC to analyze the solubility of the test chemical.
# [3] = Plasma stability (incubation in rat whole blood, conversion to compound (V)); format: in vitro ADME; conditions: study period of 8 h
# Procedure: An aliquot of 1 ml of rat whole blood was mixed with 50 ul of stock solution containing the test substance in DMSO (1 mg/ml) to obtain final concentration of 50 ug/ml. The mixture was incubated at 37° C. Samples were taken at time points of 0 min, 30 min, 1 h, 2 h, 4 h and 8 h, and then added to an organic solvent to terminate the reaction. After pretreatment each sample was analyzed by LC-MS/MS to determine the plasma concentrations of compound (III), compound (IV) and compound (V). […] The hydrolysis of the carbamate bond of each compound was accomplished within 30 minutes
# Pharmacokinetics in rat = format: in vivo, SD Rat; conditions: single i.v. dose of 2 mg/kg
# Procedure: Animals: SD Rat (Weight 200˜300 g, Sex Male)
# (§1) Intragastric solution preparation: proper amount of the test chemical was weighed, and dissolved in DMSO to give the stock solution, which was then diluted serially with 0.5% CMC-Na solution to the required concentration of administration dosage.
# (§2) IV solution preparation: proper amount of compound (V) was weighed, and dissolved in normal saline to give the stock solution, which was then diluted serially to the required concentration of administration dosage.
# Experimental procedures: After 3-day adaptive breeding, male Sprague-Dawley rats were divided into groups randomly with 4 rats in each group.
# (§3) Rats were orally given 10 mg/kg of the test compound via gavage for oral study or given 2 mg/kg of compound (V) via the femoral vein for intravenous (i.v.) study. Blood samples were collected from the orbitat at 15 min, 30 min, 1 h, 1.5 h, 2 h, 4 h, 6 h, 8 h, 10 h, and 24 h after dosing and were analyzed by LC-MS/MS after pretreatment.
# (§4) WPS software was used to calculate the mean value, standard deviation, precision and accuracy of each sample.
# Pharmacokinetics in dog = format: in vivo, Beagle Dog; conditions: single i.v. dose of 2 mg/kg
# Procedure: as §1, §2
# Experimental procedures: After 3-day adaptive breeding, male dogs were divided into groups randomly with 4 dogs in each group.
# as §3, with “Dogs were” for “Rats were”, “given 5” for “given 10”, “collected” for “collected from the orbitat”
# as §4
# [4] = single oral administration 10 mg/kg, Model 28.4 ± 7.5
# [5] = single intravenous injection 10 mg/kg, compared with melagatran, Model 19.6 ± 3.7
# [6] = single intravenous injection 10 mg/kg, compared with dabigatran, Model 22.7 ± 3.5
# [7] = male, Sprague-Dawley, plasma, iv
smiles,measurement,setting,value
"CCOCCOCCOC(=O)N=C(N)c1ccc(CNC(=O)[C@@H]2CCCN2C(=O)[C@@H](CC(C)C)NCC(=O)OCC)cc1.Cl [Compound 6, N-[(ethoxy)carbonyl]methyl-D-leucyl-L-prolyl-{4-[N′-((2-(2-(ethoxy)ethoxy)ethoxy)carbonyl)carbamimidoyl]benzyl} amide hydrochloride]",antithrombotic effect (in words),[1]; rat,significant antithrombotic effect
same,wet weight of thrombus,[1]; [4],19.7 ± 6.4
"N=C(N)c1ccc(CNC(=O)[C@@H]2CCN2C(=O)[C@H](NCC(=O)O)C2CCCCC2)cc1 [Melagatran, reference compound]",wet weight of thrombus,[1]; [5],7.8 ± 7.6
"[H]/N=C(/N)c1ccc(NCc2nc3cc(C(=O)N(CCC(=O)O)c4ccccn4)ccc3n2C)cc1 [Dabigatran, reference compound]",wet weight of thrombus,[1]; [6],15.7 ± 4.0
"CCOC(=O)CN[C@H](CC(C)C)C(=O)N1CCC[C@H]1C(=O)NCc1ccc(C(N)=NC(=O)OCCOC)cc1.Cl [Compound 2, N-[(ethoxy)carbonyl]methyl-D-leucyl-L-prolyl-{4-[N′-((2-(methoxy)ethoxy)carbonyl)carbamimidoyl]benzyl}amide hydrochloride]",antithrombotic effect (in words),[1]; rat,significant antithrombotic effect
same,wet weight of thrombus,[1]; [4],16.7 ± 8.0
"CCOC(=O)CN[C@H](CC(C)C)C(=O)N1CCC[C@H]1C(=O)NCc1ccc(C(N)=NC(=O)OCCOCCOCc2ccccc2)cc1.Cl [Compound 8, N-[(ethoxy)carbonyl]methyl-D-leucyl-L-prolyl-{4-[N′-((2-(2-(benzyloxy)ethoxy)ethoxy)carbonyl)carbamimidoyl]benzyl} amide hydrochloride]",antithrombotic effect (in words),[1]; rat,significant antithrombotic effect
same,wet weight of thrombus,[1]; [4],12.5 ± 3.1
"CCOC(=O)CN[C@H](CC(C)C)C(=O)N1CCC[C@H]1C(=O)NCc1ccc(C(N)=NC(=O)OCc2oc(=O)oc2C)cc1.Cl [Compound 1, N-[(ethoxy)carbonyl]methyl-D-leucyl-L-prolyl-{4-[N′-(((5-methyl-2-oxo-1,3-dioxol-4-yl)methyl)oxycarbonyl)carbamimidoyl]benzyl} amide hydrochloride]",solubility at 1 h,"[2]; pH 4.0, buffered salt solution",7720 µM
same,solubility at 1 h,"[2]; pH 6.3, buffered salt solution",3990 µM
same,solubility at 1 h,"[2]; pH 7.4, buffered salt solution",613 µM
same,solubility at 1 h,"[2]; pH 9.0, buffered salt solution",196 µM
same,antithrombotic effect (in words),[1]; rat,significant antithrombotic effect
same,wet weight of thrombus,[1]; [4],10.8 ± 5.1
"CCOCCCOC(=O)N=C(N)c1ccc(CNC(=O)[C@@H]2CCCN2C(=O)[C@@H](CC(C)C)NCC(=O)OCC)cc1.Cl [Compound 10, N-[(ethoxy)carbonyl]methyl-D-leucyl-L-prolyl-{4-[N′-((3-(ethoxy)propoxy)carbonyl)carbamimidoyl]benzyl} amide hydrochloride]",solubility at 1 h,"[2]; pH 4.0, buffered salt solution",6520 µM
same,solubility at 1 h,"[2]; pH 6.3, buffered salt solution",3350 µM
same,solubility at 1 h,"[2]; pH 7.4, buffered salt solution",495 µM
same,solubility at 1 h,"[2]; pH 9.0, buffered salt solution",119 µM
same,antithrombotic effect (in words),[1]; rat,significant antithrombotic effect
same,wet weight of thrombus,[1]; [4],14.6 ± 3.6
"CCCCCCOC(=O)N=C(N)c1ccc(CNC(=O)[C@@H]2CCCN2C(=O)[C@@H](CC(C)C)NCC(=O)OC(C)(C)C)cc1.Cl [Compound 19, N-[(tert-butyloxy)carbonyl]methyl-D-leucyl-L-prolyl-{4-[N′-(hexyloxycarbonyl)carbamimidoyl]benzyl} amide hydrochloride]",antithrombotic effect (in words),[1]; rat,significant antithrombotic effect
same,wet weight of thrombus,[1]; [4],13.9 ± 6.0
"CCOC(=O)CN[C@H](CC(C)C)C(=O)N1CCC[C@H]1C(=O)NCc1ccc(C(N)=NC(=O)CC(C)C(=O)OCC)cc1.Cl (stereo partly drawn) [Compound 12, N-[(ethoxy)carbonyl]methyl-D-leucyl-L-prolyl-{4-[N′-((2-(ethoxycarbonyl)propyl)carbonyl)carbamimidoyl]benzyl} amide hydrochloride]",antithrombotic effect (in words),[1]; rat,significant antithrombotic effect
same,wet weight of thrombus,[1]; [4],20.5 ± 4.7
"CCCCCCOC(=O)N=C(N)c1ccc(CNC(=O)[C@@H]2CCCN2C(=O)[C@@H](CC(C)C)NCC(=O)OCC)cc1.Cl [Compound 17, N-[(ethoxy)carbonyl]methyl-D-leucyl-L-prolyl-{4-[N′-(hexyloxycarbonyl)carbamimidoyl]benzyl} amide hydrochloride]",solubility at 1 h,"[2]; pH 4.0, buffered salt solution",5840 µM
same,solubility at 1 h,"[2]; pH 6.3, buffered salt solution",3720 µM
same,solubility at 1 h,"[2]; pH 7.4, buffered salt solution",693 µM
same,solubility at 1 h,"[2]; pH 9.0, buffered salt solution",147 µM
same,antithrombotic effect (in words),[1]; rat,significant antithrombotic effect
same,wet weight of thrombus,[1]; [4],11.0 ± 5.5
CC(C)C[C@@H](NCC(=O)O)C(=O)N1CCC[C@H]1C(=O)NCc1ccc(C(=N)N)cc1 [Compound of Formula (V)],stability in plasma stability experiment (in words),[3],"substantially stable, with no significant degradation"
same,AUC(0-inf),Pharmacokinetics in rat; [7],2960 ng·h/mL
same,Cmax,Pharmacokinetics in rat; [7],4720 ng/mL
same,half-life,Pharmacokinetics in rat; [7],5.02 h
same,CLz/F,Pharmacokinetics in rat,11.6 mL/min/kg
same,anti-thrombotic activity (in words),"[1]; rat, single injection at 10 mg/kg",superior anti-thrombotic activity compared to dabigatran and melagatran
same,wet weight of thrombus,[1]; [6],13.3 ± 1.5
same,wet weight of thrombus,[1]; [5],6.8 ± 5.0
same,AUC(0-inf),"Pharmacokinetics in dog; male, beagle, plasma, iv",4340 ng·h/mL
same,Cmax,"Pharmacokinetics in dog; male, beagle, plasma, iv",4040 ng/mL
same,half-life,"Pharmacokinetics in dog; male, beagle, plasma, iv",11.8 h
same,CLz/F,Pharmacokinetics in dog,7.9 mL/min/kg
